Literature values, collected in patent publication US8980889B2, “Pyrazole derivative” (Mochida Pharmaceutical Co., Ltd., priority 2013, dated 2015).

What was measured:
Details in all cases: U.S. Patent Application No. 2003/0032579
rat brain = tested on: rat brain
rats = tested on: rats
rat = tested on: rat

**Q.** Which results are given for `COc1ccc(Cc2nccc3cc(OC)c(OC)cc23)cc1OC` [papaverine]?
**A.** dopamine level in the rat brain (rat brain): decreases; apomorphine-induced stereotypy (rats): decreases; haloperidol-induced catalepsy (rat): increases
